In PMC3429931 (Biochemical Journal, 2012):
One block for each compound: values may come before it.

Experiments:
[1] = molecular target: T1, Dat (dopamine N-acetyltransferase), wild-type / full-length (Drosophila melanogaster, UniProt Q94521); assay: isothermal titration calorimetry; assay type: binding
[2] = molecular target: Dat (dopamine N-acetyltransferase), wild-type / full-length (Drosophila melanogaster, UniProt Q94521, S221A); assay: Ellman's reagent; settings: read-out: Tryptamine Km; 30 °C, 50 mM sodium phosphate pH 7.2, 500 mM NaCl, 2 mM EDTA, 2 mM AcCoA
Sequence of Dat (dopamine N-acetyltransferase), wild-type / full-length (Drosophila melanogaster, UniProt Q94521, S221A) (Q94521 36-275 S221A): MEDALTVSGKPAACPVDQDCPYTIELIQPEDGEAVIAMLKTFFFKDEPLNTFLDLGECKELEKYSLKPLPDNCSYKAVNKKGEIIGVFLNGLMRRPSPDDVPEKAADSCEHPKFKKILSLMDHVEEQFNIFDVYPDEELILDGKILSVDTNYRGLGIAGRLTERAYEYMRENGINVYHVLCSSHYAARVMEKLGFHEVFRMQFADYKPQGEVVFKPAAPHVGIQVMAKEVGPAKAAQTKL

[3] = molecular target: Dat (dopamine N-acetyltransferase), wild-type / full-length (Drosophila melanogaster, UniProt Q94521, S217A); assay: Ellman's reagent; settings: read-out: Tryptamine Km; 30 °C, 50 mM sodium phosphate pH 7.2, 500 mM NaCl, 2 mM EDTA, 2 mM AcCoA
Sequence of Dat (dopamine N-acetyltransferase), wild-type / full-length (Drosophila melanogaster, UniProt Q94521, S217A) (Q94521 36-275 S217A): as the sequence (Q94521 36-275 S221A) above, with S182A, A186S counted along it

[4] = molecular target: Dat (dopamine N-acetyltransferase), wild-type / full-length (Drosophila melanogaster, UniProt Q94521, E82A); assay: Ellman's reagent; settings: read-out: Tryptamine Km; 30 °C, 50 mM sodium phosphate pH 7.2, 500 mM NaCl, 2 mM EDTA, 2 mM AcCoA
Sequence of Dat (dopamine N-acetyltransferase), wild-type / full-length (Drosophila melanogaster, UniProt Q94521, E82A) (Q94521 36-275 E82A): as the sequence (Q94521 36-275 S221A) above, with E47A, A186S counted along it

[5] = molecular target: T1, Dat (dopamine N-acetyltransferase), wild-type / full-length; assay: Ellman's reagent; settings: read-out: Tryptamine Km; 30 °C, 50 mM sodium phosphate pH 7.2, 500 mM NaCl, 2 mM EDTA, 2 mM AcCoA
[6] = molecular target: Dat (dopamine N-acetyltransferase), wild-type / full-length (Drosophila melanogaster, UniProt Q94521, Y220A); assay: Ellman's reagent; settings: read-out: Tryptamine Km; 30 °C, 50 mM sodium phosphate pH 7.2, 500 mM NaCl, 2 mM EDTA, 2 mM AcCoA
Sequence of Dat (dopamine N-acetyltransferase), wild-type / full-length (Drosophila melanogaster, UniProt Q94521, Y220A) (Q94521 36-275 Y220A): as the sequence (Q94521 36-275 S221A) above, with Y185A, A186S counted along it

[7] = molecular target: Dat (dopamine N-acetyltransferase), wild-type / full-length (Drosophila melanogaster, UniProt Q94521, Y220F); assay: Ellman's reagent; settings: read-out: Tryptamine Km; 30 °C, 50 mM sodium phosphate pH 7.2, 500 mM NaCl, 2 mM EDTA, 2 mM AcCoA
Sequence of Dat (dopamine N-acetyltransferase), wild-type / full-length (Drosophila melanogaster, UniProt Q94521, Y220F) (Q94521 36-275 Y220F): as the sequence (Q94521 36-275 S221A) above, with Y185F, A186S counted along it

T1 sequence (Q94521 36-275): as the sequence (Q94521 36-275 S221A) above, with A186S counted along it

Kd [1]: 5.43 ± 1.09 µM
Compound: CC(=O)SCCNC(=O)CCNC(=O)[C@H](O)C(C)(C)COP(=O)(O)OP(=O)(O)OC[C@H]1O[C@@H](n2cnc3c(N)ncnc32)[C@H](O)[C@@H]1OP(=O)(O)O [AcCoA]

Kd [1]: 25.9 ± 2.5 µM
Compound: NCCc1ccc(O)c(O)c1 [dopamine]

Compound: NCCc1c[nH]c2ccc(O)cc12 [serotonin]
Kd [1]: 223 µM

Compound: NCCc1c[nH]c2ccccc12 [tryptamine]
Km [2]: 550 ± 70 µM
Km [3]: 650 ± 90 µM
Km [4]: 1200 ± 100 µM
Km [5]: 470 ± 90 µM
Km [6]: 490 ± 70 µM
Km [7]: 470 ± 80 µM
